Like-named read-outs stand apart in the source and are kept apart here.

As a reminder, the EC50 is the concentration needed to bring the measured effect to its halfway point. A word on the IC50: it is the midpoint of a concentration-inhibition curve.

Assay [1] has as its system TNFα production in LPS-stimulated human monocytes. The assay is described as follows: Cot Monocyte TNFα Cell Based Assay. Conditions: Homo sapiens, Monocyte, read-out: EC50 TNF. The method in brief: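 5,000 cells/well; cmpd 1 h, 37 °C, 0.5% DMSO final; LPS 50 pg/ml, 4 h, 37 °C; media TNFα by HTRF sandwich (cryptate/XL665), RT overnight; % control vs unstimulated/stimulated wells.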

Assay [2] has as its target T1, human Cot catalytic domain (30-397 amino acids) (Homo sapiens, UniProt P41279).
T1 construct: Purified recombinant human Cot catalytic domain (30-397 amino acids) was purchased from Cama Biosciences; purchased Cama Biosciences (so in the source)
Kind of assay: High Throughput Cot Biochemical Assay (KinEASE TR-FRET). To be noted: read-out: IC50 HTRF. The method in brief:
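First, purified human Cot (aa 30-397) at 5 nM phosphorylates an XL665-labeled STK3 peptide (1 μM) at 400 μM ATP, pH 7.0, 0.1% DMSO. Then a europium-conjugated phospho-specific antibody binds the product, giving the TR-FRET signal.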
Background: TR-FRET usually uses a lanthanide donor and a delayed reading to cut background.

The mark [3] stands for this setting: LPS-stimulated human monocytes, TNFα TR-FRET.
[4] abbreviates: Cot KinEASE TR-FRET, 400 μM ATP.
Setting [5] is: TNFα in LPS-stimulated human monocytes.
Where [6] appears, read: Cot biochemical HTRF (KinEASE TR-FRET) assay.
Where [7] appears, read: Cot KinEASE TR-FRET (HTRF) biochemical assay, 400 μM ATP.

T1 sequence (P41279 30-397): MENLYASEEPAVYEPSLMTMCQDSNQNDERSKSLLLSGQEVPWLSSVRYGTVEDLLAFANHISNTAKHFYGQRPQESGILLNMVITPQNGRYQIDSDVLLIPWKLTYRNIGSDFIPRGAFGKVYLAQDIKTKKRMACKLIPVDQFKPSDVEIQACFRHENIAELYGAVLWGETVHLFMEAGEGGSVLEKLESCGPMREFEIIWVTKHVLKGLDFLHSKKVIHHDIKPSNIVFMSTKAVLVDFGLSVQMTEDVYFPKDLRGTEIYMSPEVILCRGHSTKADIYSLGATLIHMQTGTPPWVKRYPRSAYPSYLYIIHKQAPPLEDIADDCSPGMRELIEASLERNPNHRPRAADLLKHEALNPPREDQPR

On to `[2H][C@](Nc1cc(Cl)c2ncc(C#N)c(NCC(C)(C)C)c2c1)(c1cccc(C#N)c1)c1cn(C(F)(F)C(N)=O)nn1` [Example 971, (S)-2-(4-(((8-chloro-3-cyano-4-(neopentylamino)quinolin-6-yl)amino)(3-cyanophenyl)methyl-d)-1H-1,2,3-triazol-1-yl)-2,2-difluoroacetamide], for which, in assay [1] (setting [3]), the EC50 worked out at 270 nM. For the same compound, the IC50 in assay [2] (setting [4]) was found to be 4 nM.

Take `Cc1c(-c2ccncc2)cccc1[C@H](Nc1cc(C#N)c2ncc(C#N)c(NCC(C)(C)C)c2c1)c1cn(C2(C(F)(F)F)CC2)nn1` [Example 1137, (S)-6-(((2-methyl-3-(pyridin-4-yl)phenyl)(1-(1-(trifluoromethyl)cyclopropyl)-1H-1,2,3-triazol-4-yl)methyl)amino)-4-(neopentylamino)quinoline-3,8-dicarbonitrile]: the EC50 in assay [1] (setting [3]) amounted to 70 nM. Also, in assay [2] (setting [4]), the IC50 turned out to be 5 nM.

For the compound `Cc1c(C#N)cccc1[C@H](Nc1cc(Cl)c2ncc(C#N)c(NCC(C)(C)C)c2c1)c1cn(C2(C)CC2)nn1` [Example 1101, (S)-8-chloro-6-(((3-cyano-2-methylphenyl)(1-(1-methylcyclopropyl)-1H-1,2,3-triazol-4-yl)methyl)amino)-4-(neopentylamino)quinoline-3-carbonitrile], in assay [1] (setting [3]), the concentration for a half-maximal effect (EC50) worked out at 27 nM. In assay [2] (setting [4]), the IC50 was 3 nM.

As for `N#Cc1cnc2c(Cl)cc(N[C@@H](c3ccccc3)c3cn(C4CC4)nn3)cc2c1Nc1ccc(F)c(Cl)c1` [Example 609, (S)-8-chloro-4-((3-chloro-4-fluorophenyl)amino)-6-(((1-cyclopropyl-1H-1,2,3-triazol-4-yl)(phenyl)methyl)amino) quinoline-3-carbonitrile], the EC50 in assay [1] (setting [5]) was found to be 384 nM. Further, the IC50 in assay [2] (setting [6]) worked out at 7 nM.

On to `CC[C@@H](Nc1c(C#N)cnc2c(C#N)cc(N[C@H](c3cn(C4CC4)nn3)c3ccccc3Cl)cc12)c1ccccc1` [Example 210, 6-(((S)-(2-chlorophenyl)(1-cyclopropyl-1H-1,2,3-triazol-4-yl)methyl)amino)-4-(((R)-1-phenylpropyl)amino) quinoline-3,8-dicarbonitrile], for which the EC50 in assay [1] (setting [5]) was 243 nM. Also, the IC50 in assay [2] (setting [7]) amounted to 6 nM.

Take `Cc1c(-c2ncco2)cccc1[C@H](Nc1cc(Cl)c2ncc(C#N)c(NCC(C)(C)C)c2c1)c1cn(C2(C(F)(F)F)CC2)nn1` [Example 1050, (S)-8-chloro-6-(((2-methyl-3-(oxazol-2-yl)phenyl)(1-(1-(trifluoromethyl)cyclopropyl)-1H-1,2,3-triazol-4-yl)methyl)amino)-4-(neopentylamino)quinoline-3-carbonitrile]: the EC50 in assay [1] (setting [3]) turned out to be 202 nM. Moreover, the IC50 in assay [2] (setting [4]) was 7 nM.

On to `N#CCC[C@@H](Nc1c(C#N)cnc2c(Cl)cc(N[C@H](c3cn(CC#N)nn3)c3ccccc3Cl)cc12)c1ccccc1` [Example 66, 8-chloro-6-(((S)-(2-chlorophenyl)(1-(cyanomethyl)-1H-1,2,3-triazol-4-yl)methyl)amino)-4-(((R)-3-cyano-1-phenylpropyl)amino) quinoline-3-carbonitrile], for which the EC50 in assay [1] (setting [5]) stood at 96 nM. The IC50 in assay [2] (setting [7]) came to 5 nM.

On to `CC(C)(C)N1CCC(n2cc([C@@H](Nc3cc(Cl)c4ncc(C#N)c(NCc5ccccc5Cl)c4c3)c3ccccc3)nn2)CC1` [Example 616, (S)-6-(((1-(1-(tert-butyl)piperidin-4-yl)-1H-1,2,3-triazol-4-yl)(phenyl)methyl)amino)-8-chloro-4-((2-chlorobenzyl)amino)quinoline-3-carbonitrile], for which the EC50 in assay [1] (setting [5]) stood at 2180 nM. In addition, the IC50 in assay [2] (setting [6]) is 40 nM.

With `Cc1c([C@H](Nc2cc(C#N)c3ncc(C#N)c(NCC(C)(C)C)c3c2)c2cn(C3(C(F)F)CC3)nn2)cccc1-n1cnnn1` [Example 1082, (S)-6-(((1-(1-(difluoromethyl)cyclopropyl)-1H-1,2,3-triazol-4-yl)(2-methyl-3-(1H-tetrazol-1-yl)phenyl)methyl)amino)-4-(neopentylamino)quinoline-3,8-dicarbonitrile], the EC50 in assay [1] (setting [3]) worked out at 262 nM. Further, the IC50 in assay [2] (setting [4]) stood at 2 nM.

Take `[2H][C@](Nc1cc(C2CC2)c2ncc(C#N)c(NCC(C)(C)C)c2c1)(c1ccc(F)cc1)c1cn(C2CC2)nn1` [Example 232, (S)-8-cyclopropyl-6-(((1-cyclopropyl-1H-1,2,3-triazol-4-yl)(4-fluorophenyl)methyl-d)amino)-4-(neopentylamino)quinoline-3-carbonitrile]: in assay [1] (setting [5]), the EC50 worked out at 2440 nM. Further, the IC50 in assay [2] (setting [7]) worked out at 215 nM.

With `CC(C)(C)CNc1c(C#N)cnc2c(Br)cc(N[C@@H](c3cccc(C(N)=O)c3)c3cn(C4CC4)nn3)cc12` [Example 54, (S)-3-(((8-bromo-3-cyano-4-(neopentylamino)quinolin-6-yl)amino) (1-cyclopropyl-1H-1,2,3-triazol-4-yl)methyl)benzamide], the EC50 in assay [1] (setting [5]) stood at 267 nM. Further, the 50% inhibitory concentration (IC50) in assay [2] (setting [7]) was 2 nM.

In the case of `Cc1c([C@H](Nc2cc(Cl)c3ncc(C#N)c(NCC(C)(C)C)c3c2)c2cn(C3(C(F)(F)F)CC3)nn2)cccc1-n1cccn1` [Example 1038, (S)-8-chloro-6-(((2-methyl-3-(1H-pyrazol-1-yl)phenyl)(1-(1-(trifluoromethyl)cyclopropyl)-1H-1,2,3-triazo1-4-yl)methyl)amino)-4-(neopentylamino)quinoline-3-carbonitrile], in assay [1] (setting [3]), the 50% effective concentration (EC50) worked out at 566 nM. Besides, in assay [2] (setting [4]), the concentration for half-maximal inhibition (IC50) was 10 nM.

In the case of `CC(C)(C)N1CCC(n2cc([C@@H](Nc3cc(Cl)c4ncc(C#N)c(NCC5CCCCO5)c4c3)c3ccc(F)cc3)nn2)CC1` (stereo partly drawn) [Example 437, 6-(((S)-(1-(1-(tert-butyl)piperidin-4-yl)-1H-1,2,3-triazol-4-yl)(4-fluorophenyl)methyl)amino)-8-chloro-4-(((tetrahydro-2H-pyran-2-yl)methyl)amino)quinoline-3-carbonitrile], the EC50 in assay [1] (setting [5]) was 3910 nM. The IC50 in assay [2] (setting [6]) came out at 448 nM.

Regarding `Cn1cc(CNc2c(C#N)cnc3c(Cl)cc(N[C@@H](c4ccccc4)c4cn(C5CCN(C(C)(C)C)CC5)nn4)cc23)cn1` [Example 475, (S)-6-(((1-(1-(tert-butyl)piperidin-4-yl)-1H-1,2,3-triazol-4-yl)(phenyl)methyl)amino)-8-chloro-4-(((1-methyl-1H-pyrazol-4-yl)methyl)amino)quinoline-3-carbonitrile], the EC50 in assay [1] (setting [5]) is more than 10000 nM. Moreover, in assay [2] (setting [6]), the IC50 came to 459 nM.

Consider `N#Cc1cnc2c(Cl)cc(N[C@H](c3c[nH]nn3)c3ccccc3Cl)cc2c1Nc1cnc(F)c(F)c1` [Example 376, (S)-8-chloro-6-(((2-chlorophenyl)(1H-1,2,3-triazol-4-yl)methyl)amino)-4-((5,6-difluoropyridin-3-yl)amino)quinoline-3-carbonitrile], for which the EC50 in assay [1] (setting [5]) was found to be 1610 nM. The IC50 in assay [2] (setting [7]) came to 47 nM.

Consider `CNC(=O)c1cccc([C@H](Nc2cc(Cl)c3ncc(C#N)c(NCC(C)(C)C)c3c2)c2cn(C3(C(F)(F)F)CC3)nn2)c1F` [Example 1114, (S)-3-(((8-chloro-3-cyano-4-(neopentylamino)quinolin-6-yl)amino)(1-(1-(trifluoromethyl)cyclopropyl)-1H-1,2,3-triazol-4-yl)methyl)-2-fluoro-N-methylbenzamide], for which the EC50 in assay [1] (setting [3]) was found to be 408 nM. The IC50 in assay [2] (setting [4]) stood at 5 nM.

On to `CC(C)(C)CNc1c(C#N)cnc2c(Cl)cc(N[C@H](c3cn(C4(C(F)(F)F)CC4)nn3)c3cccc(C#N)c3Cl)cc12` [Example 1074, (S)-8-chloro-6-(((2-chloro-3-cyanophenyl)(1-(1-(trifluoromethyl)cyclopropyl)-1H-1,2,3-triazol-4-yl)methyl)amino)-4-(neopentylamino)quinoline-3-carbonitrile], for which the EC50 in assay [1] (setting [3]) was determined as 435 nM. Also, the IC50 in assay [2] (setting [4]) amounted to 48 nM.

`CC(C)(C)CNc1c(C#N)cnc2c(C#N)cc(N[C@@H](c3ccc(F)cc3)c3cn(C4(C(N)=O)CC4)nn3)cc12` [Example 977, (S)-1-(4-(((3,8-dicyano-4-(neopentylamino)quinolin-6-yl)amino)(4-fluorophenyl)methyl)-1H-1,2,3-triazol-1-yl)cyclopropane-1-carboxamide]: the EC50 in assay [1] (setting [3]) was determined as 285 nM. In addition, in assay [2] (setting [4]), the IC50 is 6 nM.

Turning to `CCC[C@@H](Nc1c(C#N)cnc2c(Cl)cc(N[C@@H](c3ccccc3)c3cn(C4CCN(C(C)(C)C)CC4)nn3)cc12)c1ccccc1` [Example 558, 6-(((S)-(1-(1-(tert-butyl)piperidin-4-yl)-1H-1,2,3-triazol-4-yl)(phenyl)methyl)amino)-8-chloro-4-(((R)-1-phenylbutyl)amino)quinoline-3-carbonitrile], the EC50 in assay [1] (setting [5]) was found to be 199 nM. Moreover, in assay [2] (setting [6]), the IC50 was found to be 11 nM.

With `Cc1c(-c2ccccn2)cccc1[C@H](Nc1cc(Cl)c2ncc(C#N)c(NCC(C)(C)C)c2c1)c1cn(C2(C(F)(F)F)CC2)nn1` [Example 1118, (S)-8-chloro-6-(((2-methyl-3-(pyridin-2-yl)phenyl)(1-(1-(trifluoromethyl)cyclopropyl)-1H-1,2,3-triazol-4-yl)methyl)amino)-4-(neopentylamino)quinoline-3-carbonitrile], the concentration for a half-maximal effect (EC50) in assay [1] (setting [3]) stood at 921 nM. Also, in assay [2] (setting [4]), the IC50 was 28 nM.

As to `CC(C)(C)CNc1c(C#N)cnc2c(C#N)cc(N[C@@H](c3ccccc3)c3cn(C45CC(C4)C5)nn3)cc12` [Example 1124, (S)-6-(((1-(bicyclo[1.1.1]pentan-1-yl)-1H-1,2,3-triazol-4-yl)(phenyl)methyl)amino)-4-(neopentylamino)quinoline-3,8-dicarbonitrile], the EC50 in assay [1] (setting [3]) came out at 138 nM. Moreover, in assay [2] (setting [4]), the IC50 was 4 nM.

For the origin of these results see patent US10316017B2, “COT modulators and methods of use thereof” (Gilead Sciences, Inc., priority 2015, dated 2019).
